# Read-outs that look alike come from different tables or passages of the source.
# Key:
# [1] = test system: P. acnes NCTC 737; assay: Supplemented disc diffusion assay; type: cell-based, Propionibacterium acnes; conditions: P. acnes NCTC 737; for zone of inhibition at 200 µg/disc: Cutibacterium acnes, NCTC737, 72 h; for zone of inhibition at 200 µg/disc / DDA + lipid / DDA + salt: 200 μg per disc (2,6-dimethoxy-p-benzoquinone 100 μg)
# Description: (§1) The Propionibacterium spp organisms were cultured and maintained on Wilkins-Chalgren Anaerobe Medium (agar and broth) at pH 6.0; cultures were incubated anaerobically at 37° C. for 72 hours.
# (§2) A sterile paper disc was impregnated with a sample of the test compound and a minimum of 30 minutes allowed for the solvents to evaporate as far as possible. The disc was then placed on an agar plate onto which the test micro-organism had been inoculated. The plate was then incubated under the conditions described above, following which it was examined visually for signs of bacterial growth. […] The diameter of this zone of “inhibition” was measured using a ProtoCOL™ automated zone sizer (Synbiosis, Cambridge, UK).
# (§3) Performance under these conditions can provide a more reliable indication of activity on topical application. For assays conducted using S. aureus strains, the supplements were defibrinated horse blood (5% v/v), lipid (Tween™ 80 at 1% v/v) and sodium chloride (100 mM). For those using Propionibacterium spp. strains, the supplements were lipid (Tween™ 80 at 1% v/v) and sodium chloride (100 mM).
# (§4) MIC, MBC and DDA assays, as described above, were carried out using a range of different benzoquinones and hydroquinones. Supplemented DDA assays, in the presence of salt and lipid, were also conducted.
# (§5) For most DDA assays, 200 μg of each compound was loaded onto each disc.
# [2] = test system: S. aureus ATCC 29213; assay: Disc diffusion assay (DDA); type: cell-based, Staphylococcus aureus; conditions: S. aureus ATCC 29213, unsupplemented agar, 200 μg per disc (thymoquinone 50 μg, 2,6-dimethoxy-p-benzoquinone 100 μg); for zone of inhibition at 200 µg/disc: Staphylococcus aureus, ATCC29213, read-out: DDA (diameter of zone of inhibition)
# Description: (§6) The staphylococci and enterococci were cultured and maintained on Mueller-Hinton Medium (agar and broth) at pH 7.2; they were incubated aerobically at 37° C. for 24 hours.
# as §2
# (§7) The area of the zone of inhibition was calculated from the measured zone diameter (D) using the formula π(D/2)^2.
# as §5
# [3] = test system: P. acnes NCTC 737; assay: MIC assay; type: cell-based, Propionibacterium acnes; conditions: P. acnes NCTC 737, Wilkins-Chalgren broth pH 6.0, anaerobic, 37° C., 72 hours
# Description: 2. Propionibacterium spp.—the principal propionibacterial strain used in these studies was Propionibacterium acnes NCTC 737.
# as §1
# (§8) This is a standard international method for quantitatively assessing the antimicrobial activity of a compound in a liquid medium. The method used a 96-well microtitre plate, capable of holding about 200 μl of liquid per well. […] The culture media were as described above for the relevant test organisms.
# (§9) The wells were inoculated with a liquid suspension of freshly grown micro-organism and incubated under the conditions described above. After incubation, the microtitre plate was examined visually (with the aid of a light box) for cloudiness in each well, which would indicate microbial growth. The MIC value was recorded as the lowest concentration of test compound required to inhibit microbial growth, i.e., the lowest concentration for which the liquid in the well remained clear.
# (§10) The assays were conducted in duplicate and included both negative (culture medium only) and positive (culture medium, diluting solvent and inoculum) controls.
# as §4
# [4] = test system: S. aureus ATCC 29213; assay: MBC assay; type: cell-based, Staphylococcus aureus
# Description: as §6
# (§11) This assay, normally carried out after an MIC assay, determines the minimum concentration of a compound that is lethal to the micro-organism being tested.
# (§12) These samples were then individually sub-cultured on non-selective agar medium, under the incubation conditions described above. Following incubation they were examined visually for bacterial growth.
# (§13) The following experiments all used S. aureus ATCC 29213 as the test organism. MIC, MBC and DDA assays, as described above, were carried out using a range of different benzoquinones and hydroquinones. Supplemented DDA assays, in the presence of salt, lipid and blood, were also conducted.
# [5] = test system: P. acnes NCTC 737; assay: Disc diffusion assay (DDA); type: cell-based, Propionibacterium acnes; conditions: P. acnes NCTC 737, unsupplemented agar, 200 μg per disc (2,6-dimethoxy-p-benzoquinone 100 μg); for zone of inhibition at 200 µg/disc: Cutibacterium acnes, NCTC737, read-out: DDA (diameter of zone of inhibition)
# Description: as §1, §2, §7, §5
# [6] = test system: S. aureus ATCC 29213; assay: Supplemented disc diffusion assay; type: cell-based, Staphylococcus aureus; conditions: S. aureus ATCC 29213, 200 μg per disc (thymoquinone 50 μg, 2,6-dimethoxy-p-benzoquinone 100 μg); for zone of inhibition at 200 µg/disc: Staphylococcus aureus, ATCC29213, 24 h
# Description: as §6, §2, §3, §13, §5
# [7] = test system: S. aureus ATCC 29213; assay: MIC assay; type: cell-based, Staphylococcus aureus; conditions: S. aureus ATCC 29213, Mueller-Hinton broth pH 7.2, aerobic, 37° C., 24 hours
# Description: 1. Staphylococcus aureus—the principal staphylococcal test micro-organism used in these studies was Staphylococcus aureus ATCC 29213. This strain is the one recommended for QC/QA purposes in Minimum Inhibitory Concentration (MIC) assays by the US Clinical and Laboratory Standards Institute (formerly the NCCLS), an FDA-recognised body.
# as §6, §8, §9, §10, §13
# [8] = test system: P. acnes NCTC 737; assay: MBC assay; type: cell-based, Propionibacterium acnes; conditions: P. acnes NCTC 737
# Description: as §1, §11, §12, §4
# [9] = Tween 80 at 1% v/v, read-out: DDA + lipid
# [10] = sodium chloride 100 mM, read-out: DDA + salt
# [11] = Cutibacterium acnes, NCTC737, read-out: MIC
# [12] = Staphylococcus aureus, ATCC29213, read-out: MBC
# [13] = defibrinated horse blood 5% v/v, read-out: DDA + blood
# [14] = Staphylococcus aureus, ATCC29213, read-out: MIC
# [15] = Cutibacterium acnes, NCTC737, read-out: MBC
# [16] = defibrinated horse blood 5% v/v
"MIC [3, 11] [µg/mL]",MIC/MBC ratio [4],"MIC [7, 14] [µg/mL]",MIC/MBC ratio [8],MIC [3] [µg/mL],Compound,"zone of inhibition at 200 µg/disc [1, 9] [mm]","zone of inhibition at 200 µg/disc [1, 10] [mm]",zone of inhibition at 200 µg/disc [2] [mm],"MBC [4, 12] [µg/mL]",zone of inhibition at 200 µg/disc [5] [mm],"zone of inhibition at 200 µg/disc [6, 9] [mm]","zone of inhibition at 200 µg/disc [6, 13] [mm]","zone of inhibition at 200 µg/disc [6, 10] [mm]","MBC [8, 15] [µg/mL]",DDA + lipid ([1]; Tween 80 at 1% v/v) [mm],DDA + salt ([1]; sodium chloride 100 mM) [mm],DDA (diameter of zone of inhibition) [2] [mm],MBC [4] [µg/mL],DDA (diameter of zone of inhibition) [5] [mm],DDA + lipid ([6]; Tween 80 at 1% v/v) [mm],further results
15.6,0.5,7.8,0.5,,"COC1=C(OC)C(=O)C(C)=CC1=O [2,3-dimethoxy-5-methyl-p-benzoquinone]",44,43.4,26.8,15.6,33.4,26.5,19.9,25.8,31.2,,,,,,,effect of lipid on antimicrobial activity ([1]; activity increases in the presence of lipid): potentiated
15.6,1,15.6,1,,CC1=CC(=O)C(Cl)=CC1=O [2-chloro-5-methyl-p-benzoquinone],38.8,37.2,34.5,15.6,38.9,33.9,17.7,34.2,15.6,,,,,,,
,0.5,,0.5,15.6,"CCCCCCOc1cc(C)c(O)c(C)c1C [1-o-hexyl-2,3,5-trimethyl-p-hydroquinone]",,,,,,,,,,0.0,16.43,8.61,7.8,16.64,0.0,"DDA + blood [6, 16]: 0.0 mm; DDA + salt ([6]; sodium chloride 100 mM): 8.72 mm; MIC [7]: 3.9 µg/mL; MBC [8]: 31.25 µg/mL"
7.8,0.5,7.8,0.5,,"CC(C)(C)c1cc(C(C)(C)C)c(O)cc1O [4,6-di-t-butylresorcinol]",0,37.8,8.09,15.6,36.6,0,0,8.4,15.6,,,,,,,
15.6,1,7.8,1,,"CC(C)(C)C1=CC(=O)C(=O)C(C(C)(C)C)=C1 [3,5-di-t-butyl-o-benzoquinone]",26.4,40.5,23.4,7.8,31.8,17.4,15.9,23,15.6,,,,,,,
,0.5,,0.25,7.8,"Cc1cc(O)cc(C)c1O [2,6-dimethyl-p-hydroquinone]",,,,,,,,,,0.0,0.0,40.88,7.8,0.0,47.94,"DDA + blood [6, 16]: 25.53 mm; DDA + salt ([6]; sodium chloride 100 mM): 43.89 mm; MIC [7]: 3.9 µg/mL; MBC [8]: 31.25 µg/mL"
31.2,0.5,7.8,1,,Cc1cc(O)c(C(C)C)cc1O [thymohydroquinone],0,9.61,57.6,15.6,9.82,41.7,10.3,57.6,31.2,,,,,,,
125,<0.5,125,<0.5,,O=[N+]([O-])c1c(O)cccc1O [2-nitroresorcinol],0,12.7,10.5,> 250,0,0,0,12.8,> 250,,,,,,,
,1,,0.25,7.8,"Oc1ccc(O)c(F)c1F [2,3-difluoro-p-hydroquinone]",,,,,,,,,,0.0,0.0,15.77,15.6,0.0,14.63,"DDA + blood [6, 16]: 10.27 mm; DDA + salt ([6]; sodium chloride 100 mM): 15.56 mm; MIC [7]: 15.6 µg/mL; MBC [8]: 31.25 µg/mL"

Compound,"MIC [3, 11] [µg/mL]",MIC/MBC ratio [4],"MIC [7, 14] [µg/mL]",MIC/MBC ratio [8],MIC [3] [µg/mL],"zone of inhibition at 200 µg/disc [1, 9] [mm]","zone of inhibition at 200 µg/disc [1, 10] [mm]",zone of inhibition at 200 µg/disc [2] [mm],"MBC [4, 12] [µg/mL]",zone of inhibition at 200 µg/disc [5] [mm],"zone of inhibition at 200 µg/disc [6, 9] [mm]","zone of inhibition at 200 µg/disc [6, 13] [mm]","zone of inhibition at 200 µg/disc [6, 10] [mm]","MBC [8, 15] [µg/mL]",DDA + lipid ([1]; Tween 80 at 1% v/v) [mm],DDA + salt ([1]; sodium chloride 100 mM) [mm],DDA (diameter of zone of inhibition) [2] [mm],MBC [4] [µg/mL],DDA (diameter of zone of inhibition) [5] [mm],DDA + lipid ([6]; Tween 80 at 1% v/v) [mm],further results
Oc1c(Cl)c(Cl)c(O)c(Cl)c1Cl [tetrachloro-p-hydroquinone],,1,,1,31.25,,,,,,,,,,0.0,28.27,16.25,125,25.37,14.69,"DDA + blood [6, 16]: 9.38 mm; DDA + salt ([6]; sodium chloride 100 mM): 16.88 mm; MIC [7]: 125 µg/mL; MBC [8]: 31.25 µg/mL"
